Measurements as given in the Kinase Knowledgebase extract (Sharma et al. 2016).

What was measured:
[1] = target: CDK2 (UniProt P24941); assay: Enzyme Assay
[2] = target: CDK2 (human) (UniProt P24941); assay: Cell-Based Assay

Structure (SMILES): c1ccc(C2=Nc3c[nH]nc3Nc3ccccc32)cc1
- IC50 [1]: 1 to 9.99 µM
- IC50 ([2]; hct 116): 10 to 30 µM
- IC50 ([2]; sw480): 10 to 30 µM

Structure (SMILES): O=[N+]([O-])c1ccc2c(c1)C(c1ccccc1Cl)=Nc1c(n[nH]c1Cc1ccccc1)N2
- IC50 [1]: 1 to 9.99 µM
- IC50 ([2]; hct 116): 10 to 30 µM
- IC50 ([2]; mda-mb-435): 10 to 30 µM
- IC50 ([2]; sw480): 10 to 30 µM

Structure (SMILES): O=[N+]([O-])c1ccc2c(c1)C(c1ccccc1Cl)=Nc1c(n[nH]c1-c1cc3ccccc3o1)N2
- IC50 [1]: 1 to 9.99 µM
- IC50 ([2]; hct 116): 10 to 30 µM

Structure (SMILES): CCOC(=O)c1[nH]nc2c1N=C(c1ccccc1Cl)c1cc([N+](=O)[O-])ccc1N2
- IC50 [1]: 1 to 9.99 µM
- IC50 ([2]; mda-mb-435): 10 to 30 µM

Structure (SMILES): O=[N+]([O-])c1ccc2c(c1)C(c1ccccc1Cl)=Nc1c(n[nH]c1-[o+]1ccnn1)N2
- IC50 [1]: 10 to 30 µM
- IC50 ([2]; mda-mb-435): 10 to 30 µM

Structure (SMILES): Nc1ccc2c(c1)C(c1ccccc1Cl)=Nc1c[nH]nc1N2
- IC50 [1]: 1 to 9.99 µM
- IC50 ([2]; hct 116): 10 to 30 µM
- IC50 ([2]; mda-mb-435): 10 to 30 µM
- IC50 ([2]; sw480): 10 to 30 µM

Structure (SMILES): Fc1ccccc1C1=Nc2c[nH]nc2Nc2ccccc21
- IC50 [1]: 1 to 9.99 µM
- IC50 ([2]; hct 116): 10 to 30 µM
- IC50 ([2]; sw480): 10 to 30 µM

Structure (SMILES): O=[N+]([O-])c1ccc2c(c1)C(c1ccccc1Cl)=Nc1c(n[nH]c1-c1cccs1)N2
- IC50 [1]: 0.01 to 0.99 µM
- IC50 ([2]; hct 116): 10 to 30 µM
- IC50 ([2]; sw480): 10 to 30 µM

Structure (SMILES): Cc1ccsc1-c1[nH]nc2c1N=C(c1ccccc1Cl)c1cc([N+](=O)[O-])ccc1N2
- IC50 [1]: 0.01 to 0.99 µM
- IC50 ([2]; hct 116): 10 to 30 µM

Structure (SMILES): Cc1[nH]nc2c1N=C(c1ccccc1)c1cc(I)ccc1N2
- IC50 [1]: 1 to 9.99 µM
- IC50 ([2]; sw480): 10 to 30 µM

Structure (SMILES): CS(=O)(=O)c1ccc2c(c1)C(c1ccccc1)=Nc1c[nH]nc1N2
- IC50 [1]: 1 to 9.99 µM
- IC50 ([2]; hct 116): 10 to 30 µM

Structure (SMILES): O=[N+]([O-])c1ccc2c(c1)C(c1ccccc1Cl)=Nc1c(n[nH]c1CCc1ccccc1)N2
- IC50 [1]: 1 to 9.99 µM
- IC50 ([2]; hct 116): 10 to 30 µM
- IC50 ([2]; mda-mb-435): 10 to 30 µM
- IC50 ([2]; sw480): 10 to 30 µM

Structure (SMILES): O=[N+]([O-])c1ccc2c(c1)C(c1ccccc1Cl)=Nc1c(n[nH]c1-c1ccc(-n3cccc3)cc1)N2
- IC50 [1]: 10 to 30 µM
- IC50 ([2]; hct 116): 10 to 30 µM

Structure (SMILES): O=[N+]([O-])c1ccc2c(c1)C(c1ccccc1Cl)=Nc1c(n[nH]c1-c1cc3ccccc3[nH]1)N2
- IC50 [1]: 1 to 9.99 µM
- IC50 ([2]; hct 116): 10 to 30 µM
- IC50 ([2]; sw480): 10 to 30 µM

Structure (SMILES): Cc1ccccc1-c1[nH]nc2c1N=C(c1ccccc1Cl)c1cc([N+](=O)[O-])ccc1N2
- IC50 [1]: 1 to 9.99 µM
- IC50 ([2]; hct 116): 10 to 30 µM
- IC50 ([2]; sw480): 10 to 30 µM

Structure (SMILES): O=[N+]([O-])c1ccc2c(c1)C(c1ccccc1Cl)=Nc1c(n[nH]c1-c1cccc(C(F)(F)F)c1)N2
- IC50 [1]: 10 to 30 µM
- IC50 ([2]; hct 116): 10 to 30 µM

Structure (SMILES): O=[N+]([O-])c1ccc2c(c1)C(c1ccccc1Cl)=Nc1c(n[nH]c1-c1ccccc1C(F)(F)F)N2
- IC50 [1]: 10 to 30 µM
- IC50 ([2]; sw480): 10 to 30 µM

Structure (SMILES): CN(C)C(=O)c1[nH]nc2c1N=C(c1ccccc1Cl)c1cc([N+](=O)[O-])ccc1N2
- IC50 [1]: 1 to 9.99 µM

Structure (SMILES): O=[N+]([O-])c1ccc2c(c1)C(c1ccccc1Cl)=Nc1c(n[nH]c1-c1cccc(O)c1)N2
- IC50 [1]: 1 to 9.99 µM

Structure (SMILES): O=[N+]([O-])c1ccc2c(c1)C(c1ccccc1Cl)=Nc1c(n[nH]c1-c1ccccc1[N+](=O)[O-])N2
- IC50 [1]: 10 to 30 µM

Structure (SMILES): N#Cc1ccccc1-c1[nH]nc2c1N=C(c1ccccc1Cl)c1cc([N+](=O)[O-])ccc1N2
- IC50 [1]: 1 to 9.99 µM

Structure (SMILES): COC(=O)c1ccc2c(c1)C(c1ccccc1)=Nc1c[nH]nc1N2
- IC50 [1]: 1 to 9.99 µM

Structure (SMILES): O=[N+]([O-])c1ccc2c(c1)C(c1ccccc1Cl)=Nc1c(n[nH]c1-[n+]1ccc[nH]1)N2
- IC50 [1]: 0.01 to 0.99 µM
- IC50 ([2]; mda-mb-435): 10 to 30 µM

Structure (SMILES): Cn1cccc1-c1[nH]nc2c1N=C(c1ccccc1Cl)c1cc([N+](=O)[O-])ccc1N2
- IC50 [1]: 1 to 9.99 µM

Structure (SMILES): O=[N+]([O-])c1ccc2c(c1)C(c1ccccc1)=Nc1c(n[nH]c1-c1ccc3c(c1)OCCO3)N2
- IC50 [1]: 10 to 30 µM

Structure (SMILES): Fc1ccc2c(c1)C(c1ccccc1F)=Nc1c[nH]nc1N2
- IC50 [1]: 1 to 9.99 µM
- IC50 ([2]; sw480): 10 to 30 µM

Structure (SMILES): O=[N+]([O-])c1ccc2c(c1)C(c1ccccc1Cl)=Nc1c(n[nH]c1-c1ccsc1)N2
- IC50 [1]: 0.01 to 0.99 µM

Structure (SMILES): CC(C)Cc1[nH]nc2c1N=C(c1ccccc1Cl)c1cc([N+](=O)[O-])ccc1N2
- IC50 [1]: 1 to 9.99 µM

Structure (SMILES): O=[N+]([O-])c1ccc2c(c1)C(c1ccccc1)=Nc1c(n[nH]c1-c1cccnc1)N2
- IC50 [1]: 1 to 9.99 µM
